Assay results: patent publication US20150119394A1, “Insulin-Like Growth Factor-1 Receptor Inhibitors” (Merck Sharp & Dohme Corp., priority 2012, published 2015)
pIC50: −log10 of the molar value.

molecular target: T1, intracellular kinase domain of human IGF-1R (GST fusion protein) (Homo sapiens, UniProt P08069); assay: In vitro IGF-1R kinase assay (HTRF); type: biochemical; details: ATP 20 μM, IGFRK 0.25 nM
T1 construct: IGFRK and IRK enzyme used for the assay was intracellular kinase domain of human IGF-1R; GST; made in house
Description: The in vitro kinase assays using IGF-1R and IR kinase GST fusion proteins were conducted using a homogeneous time-resolved fluorescence (HTRF) format. Kinase reactions were carried out in a 384-well plate format in a final volume of 20 μL. The standard enzyme reaction buffer consisted of 50 mM Tris HCL (pH: 7.4), 1 mM EGTA, 10 mM MgCl2, 2 mM DTT, 0.01% Tween-20, IGF-1R/IR kinase enzyme, poly GT peptide substrate (Perkin Elmer [Ulight Glu-Tyr (4:1)]n) and ATP [concentration equivalent to Kmapp] […] Briefly, 2.5 μL enzyme and 2.5 μL inhibitor was preincubated for 10 minutes at 23° C. followed by the addition of 2.5 μL of poly GT substrate (final concentration of 50 nM). Reaction was initiated with the addition of 2.5 μL of ATP (final concentration of 20 μM for IGF-1R assay and 10 μM for IR assay). After 1 hour incubation at 23° C., the kinase reaction was stopped with the addition of 5 μL EDTA (final concentration of 10 mM in 20 μL). Europium cryptate—labeled antiphosphotyrosine antibody PY20 (5 μL) was added (final concentration of 2 nM) and the mixture was allowed to equilibrate for 1 hour at 23° C. followed by reading the plate in an Envision plate reader.
The intensity of light emission at 665 nm was directly proportional to the level of substrate phosphorylation. The IC50 values for inhibitors were determined by a four-parameter sigmoidal curve fit (Sigma plot or Graph pad).
IGFRK and IRK enzyme used for the assay was intracellular kinase domain of human IGF-1R and human IR cloned and expressed as GST fusion proteins using the baculovirus expression system and purified using glutathione—Sepharose column.

T1 sequence (P08069 999-1274 limits assumed): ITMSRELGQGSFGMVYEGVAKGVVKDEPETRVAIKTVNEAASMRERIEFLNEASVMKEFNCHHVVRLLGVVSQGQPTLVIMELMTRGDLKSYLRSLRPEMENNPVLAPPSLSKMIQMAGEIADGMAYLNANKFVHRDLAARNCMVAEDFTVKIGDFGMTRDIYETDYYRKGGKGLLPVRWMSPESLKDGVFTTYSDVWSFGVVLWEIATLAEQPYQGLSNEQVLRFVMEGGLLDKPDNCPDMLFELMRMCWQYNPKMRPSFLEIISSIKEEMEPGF

pIC50 | Molecule
6.78 | COc1ccc(-c2ccc(OC[C@@H]3CN(S(=O)(=O)c4c(C(N)=O)[nH]c5ccc(Cl)cc45)CCO3)cc2)cn1 [Compound 37, (S)-5-chloro-3-((2-((4-(6-methoxypyridin-3-yl)phenoxy)methyl)morpholino)sulfonyl)-1H-indole-2-carboxamide]
8.14 | COc1cc(-c2cccc(OC[C@@H]3CN(S(=O)(=O)c4c(C(N)=O)[nH]c5ccc(Cl)cc45)CCO3)c2)ccn1 [Compound 18, (S)-5-chloro-3-((2-((3-(2-methoxypyridin-4-yl)phenoxy)methyl)morpholino)sulfonyl)-1H-indole-2-carboxamide]
< 6.00 | NC(=O)c1[nH]c2ccc(Cl)cc2c1S(=O)(=O)N1CCO[C@H](COc2ccccc2-c2ccncc2)C1 [Compound 56, (S)-5-chloro-3-((2-((2-(pyridin-4-yl)phenoxy)methyl)morpholino)sulfonyl)-1H-indole-2-carboxamide]
< 7.00 | COc1ccc(-c2ccc(OC[C@@H]3CN(S(=O)(=O)c4c(C(N)=O)[nH]c5ccc(Cl)cc45)CCO3)cc2C)cn1 [Compound 69, (S)-5-chloro-3-((2-((4-(6-methoxypyridin-3-yl)-3-methylphenoxy)methyl)morpholino)sulfonyl)-1H-indole-2-carboxamide]
7.19 | NC(=O)c1[nH]c2ccc(Cl)cc2c1S(=O)(=O)N1CCO[C@H](COc2cccc(-c3ccc(C(F)(F)F)nc3)c2)C1 [Compound 6, (S)-5-chloro-3-((2-((3-(6-(trifluoromethyl)pyridin-3-yl)phenoxy)methyl)morpholino)sulfonyl)-1H-indole-2-carboxamide]
8.43 | NC(=O)c1[nH]c2ccc(Cl)cc2c1S(=O)(=O)N1CCO[C@H](COc2cccc(-c3ccccn3)c2)C1 [Compound 15, (S)-5-chloro-3-((2-((3-(pyridin-2-yl)phenoxy)methyl)morpholino)sulfonyl)-1H-indole-2-carboxamide]
7.37 | Cc1ccc(OC[C@@H]2CN(S(=O)(=O)c3c(C(N)=O)[nH]c4ccc(Cl)cc34)CCO2)cc1-c1cccnc1F [Compound 22, (S)-5-chloro-3-((2-((3-(2-fluoropyridin-3-yl)-4-methylphenoxy)methyl)morpholino)sulfonyl)-1H-indole-2-carboxamide]
6.70 | Cc1ccccc1-c1cccc(OC[C@@H]2CN(S(=O)(=O)c3c(C(N)=O)[nH]c4ccc(Cl)cc34)CCO2)c1 [Compound 10, (S)-5-chloro-3-((2-(((2′-methyl-[1,1′-biphenyl]-3-yl)oxy)methyl)morpholino)sulfonyl)-1H-indole-2-carboxamide]
8.40 | NC(=O)c1[nH]c2ccc(Cl)cc2c1S(=O)(=O)N1CCO[C@H](COc2ccc(-c3cncnc3)cc2)C1 [Compound 48, (S)-5-chloro-3-((2-((4-(pyrimidin-5-yl)phenoxy)methyl)morpholino)sulfonyl)-1H-indole-2-carboxamide]
< 7.00 | Cc1ccc(-c2ccc(OC[C@@H]3CN(S(=O)(=O)c4c(C(N)=O)[nH]c5ccc(Cl)cc45)CCO3)cc2)cn1 [Compound 52, (S)-5-chloro-3-((2-((4-(6-methylpyridin-3-yl)phenoxy)methyl)morpholino)sulfonyl)-1H-indole-2-carboxamide]
8.49 | Cc1ncccc1-c1ccc(OC[C@@H]2CN(S(=O)(=O)c3c(C(N)=O)[nH]c4ccc(Cl)cc34)CCO2)cc1 [Compound 50, (S)-5-chloro-3-((2-((4-(2-methylpyridin-3-yl)phenoxy)methyl)morpholino)sulfonyl)-1H-indole-2-carboxamide]
< 6.00 | COc1ccc(-c2ccccc2OC[C@@H]2CN(S(=O)(=O)c3c(C(N)=O)[nH]c4ccc(Cl)cc34)CCO2)cn1 [Compound 61, (S)-5-chloro-3-((2-((2-(6-methoxypyridin-3-yl)phenoxy)methyl)morpholino)sulfonyl)-1H-indole-2-carboxamide]
< 6.00 | NC(=O)c1[nH]c2ccc(Cl)cc2c1S(=O)(=O)N1CCO[C@H](COc2cncc(-c3ccccc3)c2)C1 [Compound 76, (S)-5-chloro-3-((2-(((5-phenylpyridin-3-yl)oxy)methyl)morpholino)sulfonyl)-1H-indole-2-carboxamide]
8.28 | Cc1cc(OC[C@@H]2CN(S(=O)(=O)c3c(C(N)=O)[nH]c4ccc(Cl)cc34)CCO2)ccc1-c1cncnc1 [Compound 71, (S)-5-chloro-3-((2-((3-methyl-4-(pyrimidin-5-yl)phenoxy)methyl)morpholino)sulfonyl)-1H-indole-2-carboxamide]
6.95 | NC(=O)c1[nH]c2ccc(Cl)cc2c1S(=O)(=O)N1CCO[C@H](COc2ccc(-c3ccccc3C(F)(F)F)cc2)C1 [Compound 38, (S)-5-chloro-3-((2-(((2′-(trifluoromethyl)-[1,1′-biphenyl]-4-yl)oxy)methyl)morpholino)sulfonyl)-1H-indole-2-carboxamide]
< 7.00 | NC(=O)c1[nH]c2ccc(Cl)cc2c1S(=O)(=O)N1CCO[C@H](COc2ncnc3ccccc23)C1 [Compound 91, (S)-5-chloro-3-((2-((quinazolin-4-yloxy)methyl)morpholino)sulfonyl)-1H-indole-2-carboxamide]
7.12 | COc1cc(-c2ccc(OC[C@@H]3CN(S(=O)(=O)c4c(C(N)=O)[nH]c5ccc(Cl)cc45)CCO3)cc2C)ccn1 [Compound 70, (S)-5-chloro-3-((2-((4-(2-methoxypyridin-4-yl)-3-methylphenoxy)methyl)morpholino)sulfonyl)-1H-indole-2-carboxamide]
7.52 | NC(=O)c1[nH]c2ccc(Cl)cc2c1S(=O)(=O)N1CCO[C@H](COc2ccc(-c3ccccc3)cc2)C1 [Compound 33, (S)-3-((2-(([1,1′-biphenyl]-4-yloxy)methyl)morpholino)sulfonyl)-5-chloro-1H-indole-2-carboxamide]
7.73 | Cc1cc(OC[C@@H]2CN(S(=O)(=O)c3c(C(N)=O)[nH]c4ccc(Cl)cc34)CCO2)ccc1-c1cccnc1 [Compound 66, (S)-5-chloro-3-((2-((3-methyl-4-(pyridin-3-yl)phenoxy)methyl)morpholino)sulfonyl)-1H-indole-2-carboxamide]
8.54 | Cc1cc(-c2cccc(OC[C@@H]3CN(S(=O)(=O)c4c(C(N)=O)[nH]c5ccc(Cl)cc45)CCO3)c2)ccn1 [Compound 19, (S)-5-chloro-3-((2-((3-(2-methylpyridin-4-yl)phenoxy)methyl)morpholino)sulfonyl)-1H-indole-2-carboxamide]
6.69 | COc1ccc(-c2ccc(OC[C@@H]3CN(S(=O)(=O)c4c(C(N)=O)[nH]c5ccc(Cl)cc45)CCO3)cc2)cc1 [Compound 39, (S)-5-chloro-3-((2-(((4′-methoxy-[1,1′-biphenyl]-4-yl)oxy)methyl)morpholino)sulfonyl)-1H-indole-2-carboxamide]
7.09 | COc1ccccc1-c1ccc(OC[C@@H]2CN(S(=O)(=O)c3c(C(N)=O)[nH]c4ccc(Cl)cc34)CCO2)cc1 [Compound 36, (S)-5-chloro-3-((2-(((2′-methoxy-[1,1′-biphenyl]-4-yl)oxy)methyl)morpholino)sulfonyl)-1H-indole-2-carboxamide]
7.60 | NC(=O)c1[nH]c2ccc(Cl)cc2c1S(=O)(=O)N1CCO[C@H](COc2ccc(-c3ccccc3)nc2)C1 [Compound 79, (S)-5-chloro-3-((2-(((6-phenylpyridin-3-yl)oxy)methyl)morpholino)sulfonyl)-1H-indole-2-carboxamide]
8.47 | NC(=O)c1[nH]c2ccc(Cl)cc2c1S(=O)(=O)N1CCO[C@H](COc2cccc(-c3ccnc(F)c3)c2)C1 [Compound 13, (S)-5-chloro-3-((2-((3-(2-fluoropyridin-4-yl)phenoxy)methyl)morpholino)sulfonyl)-1H-indole-2-carboxamide]
6.53 | Cc1ccccc1-c1cc(OC[C@@H]2CN(S(=O)(=O)c3c(C(N)=O)[nH]c4ccc(Cl)cc34)CCO2)ccc1C [Compound 24, (S)-5-chloro-3-((2-(((2′,6-dimethyl-[1,1′-biphenyl]-3-yl)oxy)methyl)morpholino)sulfonyl)-1H-indole-2-carboxamide]
8.30 | NC(=O)c1[nH]c2ccc(Cl)cc2c1S(=O)(=O)N1CCO[C@H](COc2ccc(-c3cccnc3F)cc2)C1 [Compound 49, (S)-5-chloro-3-((2-((4-(2-fluoropyridin-3-yl)phenoxy)methyl)morpholino)sulfonyl)-1H-indole-2-carboxamide]
8.31 | NC(=O)c1[nH]c2ccc(Cl)cc2c1S(=O)(=O)N1CCO[C@H](COc2cccc(-c3ccc(Cl)nc3)c2)C1 [Compound 86, (S)-5-chloro-3-((2-((3-(6-chloropyridin-3-yl)phenoxy)methyl)morpholino)sulfonyl)-1H-indole-2-carboxamide]

Molecule | pIC50
(S)-5-chloro-3-((2-((5-(4-methoxyphenyl)pyridin-3-yl)oxy)methyl)morpholino)sulfonyl)-1H-indole-2-carboxamide [Compound 74] | < 6.00
